Experimental data published in PubChem BioAssay (NCI).
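96-well plates; 48 h exposure; 5 concentrations. Endpoints by linear interpolation between flanking doses. Not reached: highest tested concentration assigned. TGI denotes the concentration required for complete inhibition of growth.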

What was measured:
Assay in all cases: NCI tumour cell line growth inhibition, 48 h
[1] = tested on: HOP-92 NSCLC
[2] = tested on: K-562 leukemia
[3] = tested on: MALME-3M melanoma
[4] = tested on: ACHN renal
[5] = tested on: A498 renal
[6] = tested on: UO-31 renal
[7] = tested on: BT-549 breast
[8] = tested on: TK-10 renal
[9] = tested on: MDA-N
[10] = tested on: EKVX NSCLC
[11] = tested on: NCI-H226 lung
[12] = tested on: OVCAR-5 ovarian
[13] = tested on: SF-268 CNS
[14] = tested on: HS 578T breast
[15] = tested on: NCI-H460 lung
[16] = tested on: 786-0 renal
[17] = tested on: MOLT-4 leukemia
[18] = tested on: SK-MEL-5 melanoma
[19] = tested on: OVCAR-3 ovarian
[20] = tested on: PC-3 prostate
[21] = tested on: U251 CNS
[22] = tested on: HCC-2998 colon
[23] = tested on: HCT-15 colon
[24] = tested on: HCT-116 colon
[25] = tested on: SK-OV-3 ovarian
[26] = tested on: NCI/ADR-RES ovarian
[27] = tested on: NCI-H522 lung
[28] = tested on: SW-620 colon
[29] = tested on: KM12 colon
[30] = tested on: SNB-75 CNS
[31] = tested on: SK-MEL-2 melanoma
[32] = tested on: MDA-MB-231 breast
[33] = tested on: IGROV1 ovarian
[34] = tested on: LOX IMVI melanoma
[35] = tested on: UACC-62 melanoma
[36] = tested on: T-47D breast
[37] = tested on: CAKI-1 renal
[38] = tested on: SF-295 CNS
[39] = tested on: DU-145 prostate
[40] = tested on: SR leukemia
[41] = tested on: OVCAR-4 ovarian
[42] = tested on: OVCAR-8 ovarian
[43] = tested on: SN12C renal
[44] = tested on: HL-60(TB) leukemia
[45] = tested on: M14 melanoma
[46] = tested on: UACC-257 melanoma
[47] = tested on: NCI-H23 lung
[48] = tested on: A549 NSCLC
[49] = tested on: RXF 393 renal
[50] = tested on: SK-MEL-28 melanoma
[51] = tested on: MCF7 breast
[52] = tested on: HT29 colon
[53] = tested on: COLO 205 colon
[54] = tested on: MDA-MB-435
[55] = tested on: CCRF-CEM leukemia
[56] = tested on: HOP-62 NSCLC
[57] = tested on: SNB-19 CNS
[58] = tested on: SF-539 CNS
[59] = tested on: RPMI-8226 leukemia

## c1ccc(N/N=C2\CC(c3ccccc3)Oc3ccccc32)cc1 (configuration not stated)
[1]
  TGI: > 100 µM
[2]
  TGI: > 100 µM
[3]
  TGI: > 100 µM
[4]
  TGI: > 100 µM
[5]
  TGI: > 100 µM
[6]
  TGI: > 100 µM
[7]
  TGI: > 100 µM
[8]
  TGI: > 100 µM
[9]
  TGI: > 100 µM
[10]
  TGI: 83.9 µM
[11]
  TGI: > 100 µM
[12]
  TGI: > 100 µM
[13]
  TGI: > 100 µM
[14]
  TGI: > 100 µM
[15]
  TGI: > 100 µM
[16]
  TGI: 66.8 µM
[17]
  TGI: > 100 µM
[18]
  TGI: > 100 µM
[19]
  TGI: > 100 µM
[20]
  TGI: > 100 µM
[21]
  TGI: > 100 µM
[22]
  TGI: > 100 µM
[23]
  TGI: > 100 µM
[24]
  TGI: > 100 µM
[25]
  TGI: > 100 µM
[26]
  TGI: > 100 µM
[27]
  TGI: 53.6 µM
[28]
  TGI: > 100 µM
[29]
  TGI: > 100 µM
[30]
  TGI: 75.2 µM
[31]
  TGI: > 100 µM
[32]
  TGI: > 100 µM
[33]
  TGI: > 100 µM
[34]
  TGI: > 100 µM
[35]
  TGI: > 100 µM
[36]
  TGI: > 100 µM
[37]
  TGI: > 100 µM
[38]
  TGI: > 100 µM
[39]
  TGI: > 100 µM
[40]
  TGI: > 100 µM
[41]
  TGI: > 100 µM
[42]
  TGI: > 100 µM
[43]
  TGI: > 100 µM
[44]
  TGI: > 100 µM
[45]
  TGI: > 100 µM
[46]
  TGI: > 100 µM
[47]
  TGI: > 100 µM
[48]
  TGI: > 100 µM
[49]
  TGI: 75.3 µM
[50]
  TGI: > 100 µM
[51]
  TGI: > 100 µM
[52]
  TGI: > 100 µM
[53]
  TGI: > 100 µM
[54]
  TGI: > 100 µM
[55]
  TGI: > 100 µM
[56]
  TGI: > 100 µM
[57]
  TGI: > 100 µM
[58]
  TGI: > 100 µM

## N#Cc1c(C#N)c(-c2cccc([N+](=O)[O-])c2)n(-c2ccccc2)c1N
[1]
  TGI: > 100 µM
[2]
  TGI: > 100 µM
[3]
  TGI: > 100 µM
[4]
  TGI: > 100 µM
[5]
  TGI: > 100 µM
[6]
  TGI: > 100 µM
[7]
  TGI: > 100 µM
[8]
  TGI: > 100 µM
[9]
  TGI: > 100 µM
[10]
  TGI: > 100 µM
[11]
  TGI: 86.1 µM
[12]
  TGI: > 100 µM
[13]
  TGI: > 100 µM
[14]
  TGI: > 100 µM
[16]
  TGI: > 100 µM
[17]
  TGI: > 100 µM
[18]
  TGI: > 100 µM
[19]
  TGI: > 100 µM
[20]
  TGI: > 100 µM
[21]
  TGI: > 100 µM
[22]
  TGI: > 100 µM
[23]
  TGI: > 100 µM
[24]
  TGI: > 100 µM
[25]
  TGI: > 100 µM
[26]
  TGI: > 100 µM
[27]
  TGI: > 100 µM
[28]
  TGI: > 100 µM
[29]
  TGI: > 100 µM
[30]
  TGI: 61 µM
[31]
  TGI: > 100 µM
[32]
  TGI: > 100 µM
[33]
  TGI: > 100 µM
[34]
  TGI: > 100 µM
[35]
  TGI: > 100 µM
[36]
  TGI: > 100 µM
[37]
  TGI: > 100 µM
[38]
  TGI: > 100 µM
[39]
  TGI: > 100 µM
[40]
  TGI: > 100 µM
[41]
  TGI: > 100 µM
[42]
  TGI: > 100 µM
[43]
  TGI: > 100 µM
[44]
  TGI: > 100 µM
[45]
  TGI: > 100 µM
[46]
  TGI: > 100 µM
[47]
  TGI: > 100 µM
[48]
  TGI: > 100 µM
[49]
  TGI: > 100 µM
[59]
  TGI: > 100 µM
[51]
  TGI: > 100 µM
[52]
  TGI: > 100 µM
[53]
  TGI: > 100 µM
[54]
  TGI: > 100 µM
[55]
  TGI: > 100 µM
[56]
  TGI: > 100 µM
[57]
  TGI: > 100 µM
[58]
  TGI: > 100 µM

## CC[C@H](C)c1occ2c(O)c(C(=O)O)c(=O)cc-2c1C
[1]
  TGI: 49.6 µM
[2]
  TGI: > 100 µM
[3]
  TGI: 37.7 µM
[4]
  TGI: 65.4 µM
[5]
  TGI: 93.5 µM
[7]
  TGI: 64.6 µM
[8]
  TGI: > 100 µM
[9]
  TGI: > 100 µM
[10]
  TGI: > 100 µM
[11]
  TGI: > 100 µM
[12]
  TGI: 36.7 µM
[13]
  TGI: > 100 µM
[14]
  TGI: > 100 µM
[15]
  TGI: 60.6 µM
[16]
  TGI: > 100 µM
[17]
  TGI: 54.3 µM
[18]
  TGI: 38.1 µM
[19]
  TGI: 42.4 µM
[20]
  TGI: > 100 µM
[21]
  TGI: 74.6 µM
[22]
  TGI: 36.8 µM
[23]
  TGI: 32.1 µM
[24]
  TGI: 41.5 µM
[25]
  TGI: 63.7 µM
[26]
  TGI: 50.4 µM
[27]
  TGI: 30.7 µM
[28]
  TGI: 44.5 µM
[29]
  TGI: 35.7 µM
[30]
  TGI: > 100 µM
[31]
  TGI: 34 µM
[32]
  TGI: 50.6 µM
[33]
  TGI: 37.2 µM
[34]
  TGI: 32.8 µM
[35]
  TGI: 37.4 µM
[36]
  TGI: 56.4 µM
[37]
  TGI: > 100 µM
[38]
  TGI: 99.3 µM
[39]
  TGI: > 100 µM
[40]
  TGI: 53.5 µM
[41]
  TGI: 68.2 µM
[42]
  TGI: 41.4 µM
[43]
  TGI: 81.4 µM
[44]
  TGI: 41.7 µM
[45]
  TGI: > 100 µM
[46]
  TGI: > 100 µM
[47]
  TGI: 43.1 µM
[48]
  TGI: > 100 µM
[49]
  TGI: 33.5 µM
[59]
  TGI: 90.8 µM
[51]
  TGI: > 100 µM
[52]
  TGI: 62.3 µM
[53]
  TGI: 36.8 µM
[54]
  TGI: 58 µM
[55]
  TGI: 53.5 µM
[56]
  TGI: 69.1 µM
[57]
  TGI: > 100 µM
[58]
  TGI: 46.3 µM
